Reference: patent US20220282217A1, “COMPOSITIONS AND METHODS FOR PREPARING T CELL COMPOSITIONS AND USES THEREOF” (priority 2019, published 2022)
Where a SMILES comes first, the peptide text is derived from it.

Experiments:
HLA-A02.01 [1] = target: T1, HLA-A02.01 (Homo sapiens, UniProt P04439, D140Y/D185E/D98H/E176V/E277Q/G131W/G231S/I119V/I121R/I166T/I218V/N151K/N90K/P208A/P217A/Q86G/Q94H/R138H/R169H); assay: Class I MHC peptide binding stability (pMHC-I dissociation, 125I-labeled light chain); details: for Stability (T1/2 (h)): allele A02.01; for Measured stability: HLA Allele A02.01, time for half of the complexes to dissociate at 37° C.
T1 construct: made in house; host or cells: E. coli

HLA-A02.01 [2] = target: HLA-A02.01 (Homo sapiens, UniProt P04439, D140Y/D185E/D98H/E176V/E277Q/G131W/G231S/I119V/I121R/I166T/I218V/L300P/L318F/N151K/N90K/P208A/P217A/Q86G/Q94H/R138H/R169H/T345S); assay: Class I MHC peptide binding affinity (displacement of radiolabeled reference peptide); details: for IC50: allele A02.01, read-out: Observed Affinity (IC50, (nM))
How it was run: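 Peptides compete against a prebound radiolabeled reference on MHCI over 2 days at several concentrations.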

Row | Compound | Stability (T1/2 (h)) (HLA-A02.01 [1]) [h] | IC50 (HLA-A02.01 [2]) [nM] | further results
1 | CC(C)C[C@H](NC(=O)[C@H](CO)NC(=O)[C@H](CS)NC(=O)[C@H](CCC(=O)O)NC(=O)[C@H](Cc1c[nH]c2ccccc12)NC(=O)[C@H](CC(C)C)NC(=O)[C@H](C)NC(=O)[C@H](CC(C)C)NC(=O)[C@H](CC(C)C)NC(=O)[C@@H](N)Cc1ccccc1)C(=O)O | 10.8 | – | –
2 | CC(C)C[C@H](NC(=O)CN)C(=O)N[C@H](C(=O)N[C@@H](CC(=O)O)C(=O)N[C@@H](CCC(=O)O)C(=O)N[C@@H](CCC(N)=O)C(=O)N[C@@H](CCC(N)=O)C(=O)N[C@@H](CCC(=O)O)C(=O)N[C@H](C(=O)O)C(C)C)C(C)C | 7.4 | 44 | –
3 | CC[C@H](C)[C@H](NC(=O)[C@@H](NC(=O)[C@H](CC(C)C)NC(=O)[C@@H](NC(=O)[C@@H]1CCCN1C(=O)[C@H](CCCNC(=N)N)NC(=O)[C@H](CCC(N)=O)NC(=O)[C@H](CC(N)=O)NC(=O)[C@H](CCSC)NC(=O)CN)[C@@H](C)CC)[C@@H](C)O)C(=O)O | 0.4 | 709 | –
4 | CC[C@H](C)[C@H](NC(=O)[C@@H](NC(=O)[C@H](CC(C)C)NC(=O)[C@@H](NC(=O)[C@@H]1CCCN1C(=O)[C@H](CCCNC(=N)N)NC(=O)[C@H](Cc1c[nH]c2ccccc12)NC(=O)[C@H](CC(N)=O)NC(=O)[C@H](CCSC)NC(=O)CN)[C@@H](C)CC)[C@@H](C)O)C(=O)O | 0.5 | 282 | –
5 | CC(C)C[C@H](NC(=O)[C@@H](N)CCCCN)C(=O)N[C@H](C(=O)N[C@H](C(=O)N[C@H](C(=O)NCC(=O)N[C@@H](C)C(=O)N[C@@H](CC(=O)O)C(=O)NCC(=O)N[C@H](C(=O)O)C(C)C)C(C)C)C(C)C)C(C)C | 0.9 | – | Measured stability (HLA-A02.01 [1]): 0.9 h
6 | CC(C)C[C@H](NC(=O)[C@H](CO)NC(=O)[C@H](CS)NC(=O)[C@H](CCC(=O)O)NC(=O)[C@H](Cc1c[nH]c2ccccc12)NC(=O)[C@H](CC(C)C)NC(=O)[C@H](C)NC(=O)[C@H](CC(C)C)NC(=O)[C@@H](N)CC(C)C)C(=O)O | 4 | – | –
7 | CC[C@H](C)[C@H](NC(=O)[C@H](Cc1ccc(O)cc1)NC(=O)[C@H](CC(C)C)NC(=O)[C@@H](N)CC(C)C)C(=O)N[C@H](C(=O)N[C@@H](C)C(=O)N[C@@H](Cc1ccccc1)C(=O)N[C@@H](Cc1ccccc1)C(=O)N[C@@H](CC(C)C)C(=O)O)[C@@H](C)O | 17 | 713 | –
8 | CC(C)C[C@H](N)C(=O)N[C@H](C(=O)N[C@H](C(=O)N[C@H](C(=O)NCC(=O)N[C@@H](C)C(=O)N[C@H](C(=O)NCC(=O)N[C@H](C(=O)O)C(C)C)C(C)C)C(C)C)C(C)C)C(C)C | 0.6 | – | Measured stability (HLA-A02.01 [1]): 0.6 h
9 | CC(C)C[C@H](NC(=O)[C@H](CO)NC(=O)[C@H](CC(N)=O)NC(=O)[C@H](CS)NC(=O)[C@H](CCC(=O)O)NC(=O)[C@H](Cc1c[nH]cn1)NC(=O)[C@H](CC(C)C)NC(=O)[C@@H](NC(=O)[C@@H](N)CCC(N)=O)C(C)C)C(=O)O | 0.5 | 7770 | –
10 | CC(C)[C@H](NC(=O)[C@H](CO)NC(=O)[C@H](Cc1ccccc1)NC(=O)[C@H](Cc1ccccc1)NC(=O)[C@H](Cc1ccccc1)NC(=O)[C@H](Cc1ccccc1)NC(=O)[C@H](CS)NC(=O)[C@@H](NC(=O)[C@@H](N)CO)C(C)C)C(=O)O | 9.4 | 175 | –
11 | CC(C)[C@H](N)C(=O)N[C@H](C(=O)N1CCC[C@H]1C(=O)N[C@@H](CS)C(=O)N[C@@H](CCC(=O)O)C(=O)N1CCC[C@H]1C(=O)N1CCC[C@H]1C(=O)N[C@@H](CCC(=O)O)C(=O)N[C@H](C(=O)O)C(C)C)C(C)C | 0.9 | 187 | –
12 | CSCC[C@H](NC(=O)[C@@H](NC(=O)[C@H](Cc1ccc(O)cc1)NC(=O)[C@H](C)NC(=O)[C@H](CCSC)NC(=O)[C@@H](NC(=O)[C@@H](N)Cc1ccc(O)cc1)C(C)C)C(C)C)C(=O)N[C@@H](C)C(=O)NCC(=O)N[C@H](C(=O)O)C(C)C | 20.9 | 57 | –
13 | CC(C)C[C@H](NC(=O)[C@H](CC(C)C)NC(=O)[C@@H](NC(=O)[C@H](CC(=O)O)NC(=O)[C@H](C)NC(=O)[C@H](CC(C)C)NC(=O)[C@@H](N)CS)C(C)C)C(=O)N[C@@H](CO)C(=O)N[C@H](C(=O)O)C(C)C (H-CLADVLLSV-OH; N-terminus and C-terminus assumed) | 24 | 219 | –
14 | CC[C@H](C)[C@H](NC(=O)[C@@H](N)C(C)C)C(=O)N[C@H](C(=O)N[C@@H](CCC(=O)O)C(=O)N[C@@H](Cc1ccc(O)cc1)C(=O)N[C@@H](CS)C(=O)N[C@@H](CS)C(=O)N[C@@H](Cc1ccc(O)cc1)C(=O)NCC(=O)O)[C@@H](C)CC (H-VIIEYCCYG-OH; N-terminus and C-terminus assumed) | 0.5 | – | –
15 | CSCC[C@H](NC(=O)[C@H](CS)NC(=O)[C@H](CO)NC(=O)[C@H](CO)NC(=O)[C@H](CC(N)=O)NC(=O)[C@H](CS)NC(=O)[C@H](CCSC)NC(=O)[C@@H](N)Cc1ccc(O)cc1)C(=O)NCC(=O)N[C@@H](CO)C(=O)O (H-YMCNSSCMGS-OH; N-terminus and C-terminus assumed) | 0.8 | – | –
16 | CC(C)C[C@H](NC(=O)[C@H](C)NC(=O)[C@H](CCC(=O)O)NC(=O)[C@H](CCC(N)=O)NC(=O)[C@@H](NC(=O)[C@H](CC(=O)O)NC(=O)[C@H](Cc1ccccc1)NC(=O)[C@H](CCC(=O)O)NC(=O)[C@H](CCC(N)=O)NC(=O)[C@@H](N)CC(C)C)C(C)C)C(=O)O [LQEFDVQEAL] (H-LQEFDVQEAL-OH) | – | 50300 | –
17 | CC[C@H](C)[C@H](NC(=O)[C@@H](NC(=O)[C@@H](N)CC(C)C)[C@@H](C)O)C(=O)N[C@@H](CC(N)=O)C(=O)N[C@@H](CCCCN)C(=O)N[C@@H](CCC(=O)O)C(=O)N[C@@H](CCC(=O)O)C(=O)N[C@@H](C)C(=O)N[C@@H](CC(C)C)C(=O)O [LTINKEEAL] | – | 4410 | –
18 | CC(C)C[C@H](NC(=O)[C@H](C)NC(=O)[C@@H](NC(=O)[C@@H]1CCCN1C(=O)[C@@H](NC(=O)[C@H](CS)NC(=O)[C@H](CO)NC(=O)[C@H](CO)NC(=O)[C@H](CC(C)C)NC(=O)[C@@H](N)CCCNC(=N)N)C(C)C)C(C)C)C(=O)O [RLSSCVPVAL] (H-RLSSCVPVAL-OH; N-terminus and C-terminus assumed) | – | 54.2 | –

Further lines, with some results ahead:

Row | Stability (T1/2 (h)) (HLA-A02.01 [1]) [h] | IC50 (HLA-A02.01 [2]) [nM] | Compound | further results
19 | 0.4 | 177 | CC[C@H](C)[C@H](NC(=O)[C@@H](N)CC(C)C)C(=O)N[C@@H](CCSC)C(=O)N[C@@H](CCC(N)=O)C(=O)N[C@@H](CC(C)C)C(=O)N[C@@H](CCSC)C(=O)N1CCC[C@H]1C(=O)N[C@@H](Cc1ccccc1)C(=O)NCC(=O)N[C@@H](CS)C(=O)O | Stability (half-life (hr.)) (HLA-A02.01 [1]; EGFR T790M peptides, HLA allele A02.01): 0.3813 h; Kd (HLA-A02.01 [2]; EGFR T790M peptides, HLA allele A02.01, read-out: Affinity): 132 nM
20 | 6.6 | 1760 | CC(C)C[C@H](NC(=O)[C@@H](NC(=O)[C@H](CC(=O)O)NC(=O)[C@H](CC(C)C)NC(=O)[C@@H](NC(=O)[C@@H](N)Cc1ccc(O)cc1)[C@@H](C)O)C(C)C)C(=O)N[C@@H](CCC(=O)O)C(=O)N[C@@H](CCCNC(=N)N)C(=O)N[C@@H](CS)C(=O)O | –
21 | 0.8 | 226 | CC[C@H](C)[C@H](NC(=O)[C@H](Cc1ccccc1)NC(=O)[C@H](CS)NC(=O)[C@H](CO)NC(=O)[C@H](CC(N)=O)NC(=O)[C@H](CO)NC(=O)[C@H](C)NC(=O)[C@H](CO)NC(=O)[C@H](CC(C)C)NC(=O)[C@H](C)N)C(=O)O (H-ALSASNSCFI-OH; N-terminus and C-terminus assumed) | –
22 | 27.3 | 79 | CC(C)C[C@H](NC(=O)[C@H](C)N)C(=O)N[C@@H](CO)C(=O)N[C@@H](CCC(=O)O)C(=O)N[C@@H](Cc1c[nH]cn1)C(=O)N[C@@H](CS)C(=O)N1CCC[C@H]1C(=O)N[C@H](C(=O)N[C@H](C(=O)O)[C@@H](C)O)[C@@H](C)O (H-ALSEHCPTT-OH; N-terminus and C-terminus assumed) | –
23 | 6.8 | 3 | CC[C@H](C)[C@H](NC(=O)[C@H](Cc1ccc(O)cc1)NC(=O)[C@H](CCC(=O)O)NC(=O)CNC(=O)[C@H](CO)NC(=O)[C@@H](N)Cc1ccccc1)C(=O)N1CCC[C@H]1C(=O)N[C@H](C(=O)N[C@H](C(=O)O)C(C)C)[C@@H](C)O (H-FSGEYIPTV-OH; N-terminus and C-terminus assumed) | –
24 | 1.2 | – | CC[C@H](C)[C@H](N)C(=O)N[C@H](C(=O)N[C@H](C(=O)N[C@@H](CCC(=O)O)C(=O)N[C@@H](Cc1ccc(O)cc1)C(=O)N[C@@H](CS)C(=O)N[C@@H](Cc1ccccc1)C(=O)N[C@@H](Cc1ccc(O)cc1)C(=O)NCC(=O)O)[C@@H](C)CC)[C@@H](C)CC (H-IIIEYCFYG-OH; N-terminus and C-terminus assumed) | –
25 | 6.4 | – | CSCC[C@H](NC(=O)[C@H](CCC(N)=O)NC(=O)[C@H](CC(C)C)NC(=O)[C@@H](NC(=O)[C@@H](N)CCCCN)C(C)C)C(=O)N[C@@H](CC(=O)O)C(=O)N[C@@H](Cc1ccccc1)C(=O)N[C@@H](CC(C)C)C(=O)N[C@H](C(=O)O)C(C)C (H-KVLQMDFLV-OH; N-terminus and C-terminus assumed) | –
26 | – | 718 | CC(C)C[C@H](NC(=O)[C@H](C)NC(=O)[C@H](Cc1ccccc1)NC(=O)[C@H](CO)NC(=O)[C@@H](NC(=O)[C@H](CCC(N)=O)NC(=O)[C@@H](NC(=O)[C@@H](NC(=O)[C@H](CCC(N)=O)NC(=O)[C@@H](N)CC(C)C)C(C)C)[C@@H](C)O)[C@@H](C)O)C(=O)O [LQVTQTSFAL] (H-LQVTQTSFAL-OH; N-terminus and C-terminus assumed) | –
